Each structure is given as a SMILES string. Where a name gives a salt, the structure may show the parent alone.

As usually defined, the Ki is a measure of affinity in units of concentration, obtained from inhibition or displacement. Read a low Ki as higher affinity. A word on the IC50: it is the concentration that gives 50% inhibition.

Common to all, as to type: biochemical
The target in one assay is T1, MASP-2 (CCP1-CCP2-SP) (Homo sapiens, UniProt O00187).
T1 construct: 15 μL of Enzyme MASP-2 (CCP1-CCP2-SP) in Assay Buffer
T1 sequence (O00187 445-686 limits assumed): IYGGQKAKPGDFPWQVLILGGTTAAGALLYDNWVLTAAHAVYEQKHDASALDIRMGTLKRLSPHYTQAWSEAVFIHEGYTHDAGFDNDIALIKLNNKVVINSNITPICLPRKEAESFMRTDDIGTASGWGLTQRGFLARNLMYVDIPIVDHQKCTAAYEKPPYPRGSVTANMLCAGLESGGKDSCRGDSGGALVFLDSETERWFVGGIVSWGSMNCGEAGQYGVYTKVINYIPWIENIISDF
T1 sequence (O00187 287-444 partner limits assumed): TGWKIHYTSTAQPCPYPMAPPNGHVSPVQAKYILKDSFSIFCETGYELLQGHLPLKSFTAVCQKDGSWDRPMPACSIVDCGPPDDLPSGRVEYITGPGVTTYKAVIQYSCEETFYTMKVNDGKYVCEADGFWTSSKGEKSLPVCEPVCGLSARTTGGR
The experiment in a line: Enzymatic assay for MASP-2 inhibitory activity (fluorogenic substrate). Summed up: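 MASP-2 (CCP1-CCP2-SP) cleaved a fluorogenic substrate based on the C2 cleavage site in 20 mM HEPES pH 7.4, 140 mM NaCl, 0.1% Tween 20 at room temperature. After 20 min the reaction was stopped with 0.1 M acetic acid and fluorescence read. % activity was normalized to DMSO-only and no-enzyme controls; IC50 taken as Ki.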

Assay [1] has as its system Lectin Pathway Activation in human serum. The experiment in a line: Lectin Pathway Activation (LPA) assay in human serum, mannan-coated ELISA plate, C4c detection. The following applies: 1% human serum, read-out: LPA Functional Activity (IC50). The procedure: Lectin Pathway Activation (LPA) Assay in Human Serum Treated with Compounds
A microtiter ELISA plate was coated with mannan (1 mg/ml) from Saccharomyces cerevisiae (Sigma-Aldrich®, M7504) overnight at 4° C. in coating buffer [33.3 mM Na2CO3, 166.67 mM NaHCO3]. The plate was blocked with 5% bovine serum albumin (BSA) (Sigma-Aldrich®, A3294) in 1×PBST [Phosphate Buffered Saline Solution (1.06 mM KH2PO4, 155.2 mM NaCl, 2.97 mM Na2HPO4^−·7H2O, pH 7.4), 0.05% Tween-20] shaking for 2 hours at room temperature. 1% human serum was incubated with serial dilutions of small compounds in 1× LPA+ Buffer [20 mM Hepes, pH 7.4, 140 mM NaCl, 2 mM MgCl2 (6H2O)] and incubated for 5 minutes at room temperature. 40 μL of this mixture was then added to the plate, and the plate was incubated at room temperature for 55 mins. Next, the reaction was stopped by adding 20 μL of EDTA Stop Solution [20 mM Hepes, pH7.4, 140 mM NaCl, 150 mM EDTA] to the plate. The plate was then washed 10× in wash buffer 1×PBST; 40 μL of Rabbit Anti Human C4c Antibody [Dako®, Q0369] diluted 1:20000 in wash buffer was added; and the plate was incubated shaking at room temperature for 30 minutes. The plate was washed [5× times]; 40 μL of Goat Anti-rabbit Antibody-HRP Conjugate [Southern Biotech®, 4050-05] diluted 1:10000 in wash buffer was added; and the plate was incubated shaking at room temperature for 30 minutes. After that, the plate was washed five times; 40 µL/well of Amplex® UltraRed Substrate Solution [1× LPA Buffer, 10 mM Amplex® UltraRed Stock Solution [Thermo Fisher Sci.®, A36006], 3% stabilized hydrogen peroxide [Sigma Aldrich®, 216763] was added; the plate was incubated at room temperature for 16 minutes; the reaction was stopped by adding 8 µL/well of Amplex® UltraRed Stop Solution [Thermo Fisher Sci.®, A33855] in 100% EtOH. Finally, the plate was read for fluorescence at Ex: 550 nm, Em: 580 nm on the i3x Microplate Reader.

The next assay has as its target T2, human α-thrombin (Homo sapiens, UniProt P00734).
T2 construct: enzyme (human α-thrombin (BioPharm® Lab.)) in assay buffer; purchased BioPharm® Lab
The experiment in a line: Enzymatic assay for thrombin (fluorogenic peptide substrate Boc-VPR-AMC). The method in brief: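 Human α-thrombin was run with the fluorogenic substrate Boc-VPR-AMC in 20 mM Hepes pH 7.4, 140 mM NaCl, 0.1% Tween 20 at room temperature for 20 min, then stopped with 0.1 M acetic acid. % activity was normalized to DMSO and no-enzyme controls. Under linear conditions IC50 equalled Ki, except for tight-binding inhibitors.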

`Cc1ccc(CNc2nc(Cl)c3n(c2=O)[C@H](C(=O)NCc2ccc(N)nc2C)CC3)cc1C` [Compound 27, (S)-N-((6-amino-2-methylpyridin-3-yl)methyl)-1-chloro-3-((3,4-dimethylbenzyl)amino)-4-oxo-4,6,7,8-tetrahydropyrrolo[1,2-a]pyrazine-6-carboxamide trifluoroacetate]: the Ki is less than 500 nM on MASP-2 (CCP1-CCP2-SP) and 2500 to 10000 nM on human α-thrombin. Besides, the IC50 in assay [1] was less than 50 nM.
Take `Cc1cc(C)cc(CNc2ncc3n(c2=O)[C@H](C(=O)NCc2cc4cnccc4n2C)CC3)c1` [Compound 41, (S)-3-((3,5-dimethylbenzyl)amino)-N-((1-methyl-1H-pyrrolo[3,2-c]pyridin-2-yl)methyl)-4-oxo-4,6,7,8-tetrahydropyrrolo[1,2-a]pyrazine-6-carboxamide trifluoroacetate]: the Ki on MASP-2 (CCP1-CCP2-SP) is less than 500 nM; at human α-thrombin, 500 to 2500 nM. Also, the half-maximal inhibitory concentration (IC50) in assay [1] is less than 50 nM.
For the molecule `COc1cc(C)cc(CNc2ncc3n(c2=O)[C@H](C(=O)NCc2cc4cnccc4[nH]2)CC3)c1` [Compound 48, (S)-N-((1H-pyrrolo[3,2-c]pyridin-2-yl)methyl)-3-((3-methoxy-5-methylbenzyl)amino)-4-oxo-4,6,7,8-tetrahydropyrrolo[1,2-a]pyrazine-6-carboxamide], the Ki on MASP-2 (CCP1-CCP2-SP) and on human α-thrombin was less than 500 nM each time. The IC50 in assay [1] is less than 50 nM.
`Cc1cc(F)cc(CNc2ncc3n(c2=O)[C@H](C(=O)NCc2ccc(N)nc2C)CC3)c1` [Compound 69, (S)-N-((6-amino-2-methylpyridin-3-yl)methyl)-3-((3-fluoro-5-methylbenzyl)amino)-4-oxo-4,6,7,8-tetrahydropyrrolo[1,2-a]pyrazine-6-carboxamide]: the inhibition constant (Ki) on MASP-2 (CCP1-CCP2-SP) and at human α-thrombin was less than 500 nM throughout. In addition, the half-inhibitory concentration (IC50) in assay [1] was less than 50 nM.
In the case of `Cc1cc(F)cc(CNc2ncc3n(c2=O)[C@H](C(=O)NCc2cc4cnc(C)cc4[nH]2)CC3)c1` [Compound 71, (S)-3-((3-fluoro-5-methylbenzyl)amino)-N-((6-methyl-1H-pyrrolo[3,2-c]pyridin-2-yl)methyl)-4-oxo-4,6,7,8-tetrahydropyrrolo[1,2-a]pyrazine-6-carboxamide], the Ki is less than 500 nM at MASP-2 (CCP1-CCP2-SP) and 10000 to 25000 nM on human α-thrombin. In addition, the IC50 in assay [1] is less than 50 nM.
As to `Cc1cc(C)cc([C@@H](CO)Nc2ncc3n(c2=O)[C@H](C(=O)NCc2cc4cnccc4[nH]2)CC3)c1` [Compound 75, (S)-N-((1H-pyrrolo[3,2-c]pyridin-2-yl)methyl)-3-(((S)-1-(3,5-dimethylphenyl)-2-hydroxyethyl)amino)-4-oxo-4,6,7,8-tetrahydropyrrolo[1,2-a]pyrazine-6-carboxamide], the Ki at MASP-2 (CCP1-CCP2-SP) and on human α-thrombin was less than 500 nM throughout. In addition, the IC50 in assay [1] is less than 50 nM.
In the case of `Cc1ccc(F)c(CNc2ncc3n(c2=O)[C@H](C(=O)NCc2cc4cnccc4[nH]2)CC3)c1` [Compound 78, (S)-N-((1H-pyrrolo[3,2-c]pyridin-2-yl)methyl)-3-((2-fluoro-5-methylbenzyl)amino)-4-oxo-4,6,7,8-tetrahydropyrrolo[1,2-a]pyrazine-6-carboxamide], the Ki at MASP-2 (CCP1-CCP2-SP) and on human α-thrombin was less than 500 nM throughout. Further, the IC50 in assay [1] is less than 50 nM.
Take `Cc1cc(C)cc(CNc2ncc3n(c2=O)[C@H](C(=O)NCc2ccnc(N)c2)CC3)c1` [Compound 88, (S)-N-((2-aminopyridin-4-yl)methyl)-3-((3,5-dimethylbenzyl)amino)-4-oxo-4,6,7,8-tetrahydropyrrolo[1,2-a]pyrazine-6-carboxamide]: the inhibition constant Ki at MASP-2 (CCP1-CCP2-SP) and at human α-thrombin was less than 500 nM in each case. Besides, in assay [1], the half-inhibitory concentration (IC50) fell in the range of 50 to 500 nM.
Consider `O=C(NCc1cc2cnccc2[nH]1)[C@@H]1CCc2c(C3=CCOCC3)nc(NCc3ccccc3)c(=O)n21` [Compound 120, (S)—N-((1H-pyrrolo[3,2-c]pyridin-2-yl)methyl)-3-(benzylamino)-1-(3,6-dihydro-2H-pyran-4-yl)-4-oxo-4,6,7,8-tetrahydropyrrolo[1,2-a]pyrazine-6-carboxamide], for which the Ki was less than 500 nM on MASP-2 (CCP1-CCP2-SP) and greater than 25000 nM at human α-thrombin. In assay [1], the IC50 is less than 50 nM.
The like results for `Cc1nc(N)ccc1CNC(=O)[C@@H]1CCc2c(Cl)nc(NCc3ccccc3)c(=O)n21` [Compound 131, (S)-N-((6-amino-2-methylpyridin-3-yl)methyl)-3-(benzylamino)-1-chloro-4-oxo-4,6,7,8-tetrahydropyrrolo[1,2-a]pyrazine-6-carboxamide] were, in that order, less than 500 nM, 500 to 2500 nM and less than 50 nM.
For `Cc1nc(N)ccc1CNC(=O)[C@@H]1C[C@H](Cc2ccccc2)c2cnc(NC3CCC3)c(=O)n21` [Compound 140, (6S,8S)-N-((6-amino-2-methylpyridin-3-yl)methyl)-8-benzyl-3-(cyclobutylamino)-4-oxo-4,6,7,8-tetrahydropyrrolo[1,2-a]pyrazine-6-carboxamide], the Ki on MASP-2 (CCP1-CCP2-SP) and on human α-thrombin was less than 500 nM in each case. Further, the IC50 in assay [1] was less than 50 nM.
In the case of `CC[C@H]1C[C@@H](C(=O)NCc2cc3cnccc3[nH]2)n2c1cnc(NCc1cc(C)cc(C)c1)c2=O` [Compound 155, (6S,8S)-N-((1H-pyrrolo[3,2-c]pyridin-2-yl)methyl)-3-((3,5-dimethylbenzyl)amino)-8-ethyl-4-oxo-4,6,7,8-tetrahydropyrrolo[1,2-a]pyrazine-6-carboxamide], the inhibitory constant (Ki) on MASP-2 (CCP1-CCP2-SP) and on human α-thrombin was less than 500 nM each time. Also, the IC50 in assay [1] is less than 50 nM.
On to `Cc1cc(F)cc(CNc2ncc3n(c2=O)[C@H](C(=O)NCc2ccc(CN)cc2)CC3)c1` [Compound 181, (S)—N-(4-(aminomethyl)benzyl)-3-((3-fluoro-5-methylbenzyl)amino)-4-oxo-4,6,7,8-tetrahydropyrrolo[1,2-a]pyrazine-6-carboxamide trifluoroacetate], for which the Ki was less than 500 nM on MASP-2 (CCP1-CCP2-SP) and 2500 to 10000 nM on human α-thrombin. Further, the half-inhibitory concentration (IC50) in assay [1] lay within 50 to 500 nM.
Take `COc1cc(C)cc(CNc2ncc3n(c2=O)[C@H](C(=O)N[C@H](C)c2ccc(N)nc2)CC3)c1` [Compound 194, (S)-N-((R)-1-(6-aminopyridin-3-yl)ethyl)-3-((3-methoxy-5-methylbenzyl)amino)-4-oxo-4,6,7,8-tetrahydropyrrolo[1,2-a]pyrazine-6-carboxamide trifluoroacetate]: the inhibitory constant (Ki) was less than 500 nM on MASP-2 (CCP1-CCP2-SP) and 2500 to 10000 nM on human α-thrombin. Further, the IC50 in assay [1] is less than 50 nM.
For `Cc1ccc(C(F)(F)F)cc1CNc1ncc2n(c1=O)[C@H](C(=O)N[C@H](C)c1ccc(N)nc1)CC2` [Compound 197, (S)-N-((R)-1-(6-aminopyridin-3-yl)ethyl)-3-((2-methyl-5-(trifluoromethyl)benzyl)amino)-4-oxo-4,6,7,8-tetrahydropyrrolo[1,2-a]pyrazine-6-carboxamide trifluoroacetate], the inhibitory constant (Ki) is less than 500 nM at MASP-2 (CCP1-CCP2-SP) and greater than 25000 nM on human α-thrombin. Besides, the IC50 in assay [1] is less than 50 nM.
Turning to `Cc1cc(F)cc(CNc2ncc3n(c2=O)[C@H](C(=O)NCc2cnc(N)c(C)c2)CC3)c1` [Compound 213, (S)—N-((6-amino-5-methylpyridin-3-yl)methyl)-3-((3-fluoro-5-methylbenzyl)amino)-4-oxo-4,6,7,8-tetrahydropyrrolo[1,2-a]pyrazine-6-carboxamide trifluoroacetate], the Ki at MASP-2 (CCP1-CCP2-SP) and at human α-thrombin was less than 500 nM in each case. Moreover, the IC50 in assay [1] is 50 to 500 nM.
On to `Cc1nc(N)ccc1CNC(=O)[C@@H]1CCc2c(Cl)nc(NCc3cccc(-c4ccccc4)c3)c(=O)n21` [Compound 221, (S)-3-(([1,1′-biphenyl]-3-ylmethyl)amino)-N-((6-amino-2-methylpyridin-3-yl)methyl)-1-chloro-4-oxo-4,6,7,8-tetrahydropyrrolo[1,2-a]pyrazine-6-carboxamide trifluoroacetate], for which the Ki at MASP-2 (CCP1-CCP2-SP) was less than 500 nM; at human α-thrombin, 2500 to 10000 nM. Further, in assay [1], the 50% inhibitory concentration (IC50) is less than 50 nM.

(Values after patent publication US20250122225A1, “MASP-2 INHIBITORS AND METHODS OF USE” (Omeros Corporation, priority 2023, published 2025).)
